# Values joined by “and” are separate entries in the source; they are usually repeats but may differ in a detail not shown here. Equal entries are not always repeated. Inconclusive results and toxic doses are left out.
# System: BDF1 mice, P388 leukemia ip, median survival T/C
# Assay: NCI In Vivo Anticancer Drug Screen. Data for tumor model P388 Leukemia (intraperitoneal) in B6D2F1 (BDF1) mice
# Details: endpoint: median survival time, higher = longer survival
# Summary of the method: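 Survival ratio, drug arm over vehicle arm, in mice with a transplanted tumour.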
# [1] = dose: 5.0 mg/kg/injection, schedule: Q04DX003 (ip), vehicle: saline
# [2] = dose: 10.0 mg/kg/injection, schedule: Q04DX003 (ip), vehicle: saline
# [3] = dose: 20.0 mg/kg/injection, schedule: Q04DX003 (ip), vehicle: saline
# [4] = dose: 50.0 mg/kg/injection, schedule: Q04DX003 (ip), vehicle: saline with Tween-80
# [5] = dose: 100.0 mg/kg/injection, schedule: Q01DX009 (ip), vehicle: saline with Tween-80
# [6] = dose: 100.0 mg/kg/injection, schedule: Q04DX003 (ip), vehicle: saline with Tween-80
# [7] = dose: 200.0 mg/kg/injection, schedule: Q01DX009 (ip), vehicle: saline with Tween-80
# [8] = dose: 200.0 mg/kg/injection, schedule: Q04DX003 (ip), vehicle: saline with Tween-80
# [9] = dose: 400.0 mg/kg/injection, schedule: Q04DX003 (ip), vehicle: saline with Tween-80
# [10] = dose: 50.0 mg/kg/injection, schedule: Q01DX009 (ip), vehicle: saline with Tween-80
# [11] = dose: 100.0 mg/kg/injection, schedule: Q04DX003 (ip), vehicle: Klucel (hydroxypropylcellulose) (HPC)
# [12] = dose: 25.0 mg/kg/injection, schedule: Q01DX009 (ip), vehicle: saline with Tween-80
# [13] = dose: 100.0 mg/kg/injection, schedule: Q01DX009 (ip), vehicle: Klucel (hydroxypropylcellulose) (HPC)
# [14] = dose: 100.0 mg/kg/injection, schedule: Q04DX003 (ip), vehicle: saline
# [15] = dose: 100.0 mg/kg/injection, schedule: Q01DX009 (ip), vehicle: saline
structure (smiles),measurement,setting,value
O=C(O)C1CCC[N-]C1.O=C(O)C1CCC[N-]C1.[Cl][Pt+2][Cl] (stereo unspecified),T/C,[1],95 % of control
same,T/C,[2],86 % of control
same,T/C,[3],95 % of control
O=C(NOCc1cc2c(cc1Cl)OCO2)c1ccc(S(=O)(=O)F)cc1,T/C,"dose: 100.0 mg/kg/injection, schedule: Q01DX001 (ip), vehicle: saline sonified",104 % of control
same,T/C,"dose: 200.0 mg/kg/injection, schedule: Q01DX001 (ip), vehicle: saline sonified",86 % of control
same,T/C,"dose: 400.0 mg/kg/injection, schedule: Q01DX001 (ip), vehicle: saline sonified",86 % of control
COC(C(OC)N1CCOCC1)N1CCOCC1 (stereo unspecified),T/C,[4],104 % of control
same,T/C,[5],91 % of control
same,T/C,[6],95 % of control
same,T/C,[7],95 % of control
same,T/C,[8],100 % of control
same,T/C,"dose: 400.0 mg/kg/injection, schedule: Q01DX009 (ip), vehicle: saline with Tween-80",95 % of control
same,T/C,[9],100 % of control
N#Cc1c(Cl)c(Cl)c(OC(=O)c2ccc(Cl)c(Cl)c2)c(Cl)c1Cl,T/C,[10],117 % of control
same,T/C,[5],108 % of control
same,T/C,[7],94 % of control
COc1ccc(C(=O)C=C(C(F)(F)F)C(F)(F)F)cc1,T/C,"dose: 6.25 mg/kg/injection, schedule: Q04DX003 (ip), vehicle: saline with Tween-80",113 % of control
same,T/C,"dose: 12.5 mg/kg/injection, schedule: Q04DX003 (ip), vehicle: saline with Tween-80",100 % of control
same,T/C,"dose: 25.0 mg/kg/injection, schedule: Q04DX003 (ip), vehicle: saline with Tween-80",100 % of control
same,T/C,[4],115 % of control
same,T/C,[6],110 % of control
Cc1cc(=O)c(O)c(N(C)C)o1,T/C,[10],95 % of control
same,T/C,[5],106 % of control
same,T/C,[7],102 % of control
COC(=O)C1=C(C)NC(=O)NC1c1ccc(N(CCCl)CCCl)c(OC)c1 (stereo unspecified),T/C,"dose: 1.3 mg/kg/injection, schedule: Q01DX009 (ip), vehicle: saline with Tween-80",169 % of control
same,T/C,"dose: 2.0 mg/kg/injection, schedule: Q01DX009 (ip), vehicle: saline with Tween-80",227 % of control
same,T/C,"dose: 3.0 mg/kg/injection, schedule: Q01DX009 (ip), vehicle: saline with Tween-80",220 % of control
same,T/C,"dose: 4.5 mg/kg/injection, schedule: Q01DX009 (ip), vehicle: saline with Tween-80",227 % of control
CC(Br)C(=O)NC(CC(N)=O)C(=O)O (stereo unspecified),T/C,[4],100 % of control
same,T/C,[6],90 % of control
same,T/C,[8],100 % of control
COC(OC)c1cc(=O)[nH]c(NC(=O)C(Cl)Cl)n1,T/C,[6],112 % of control
same,T/C,[8],95 % of control
same,T/C,[9],104 % of control
O=C1/C(=C/c2ccccc2)CCCC1/C=C/c1ccccc1 (stereo unspecified),T/C,[11],100 % of control
same,T/C,"dose: 200.0 mg/kg/injection, schedule: Q04DX003 (ip), vehicle: Klucel (hydroxypropylcellulose) (HPC)",104 % of control
same,T/C,"dose: 400.0 mg/kg/injection, schedule: Q04DX003 (ip), vehicle: Klucel (hydroxypropylcellulose) (HPC)",104 % of control
OC(COc1cccc(C(F)(F)F)c1)CN1CCN(c2ccc(F)cc2)CC1 (stereo unspecified),T/C,[12],96 % of control
same,T/C,[10],96 % of control
same,T/C,[5],118 % of control
CC[n+]1ccc(Nc2ccc(NC(=O)c3ccc(Nc4cc[n+](CC)c5ccc([N+](=O)[O-])cc45)cc3)cc2)cc1,T/C,"dose: 0.44 mg/kg/injection, schedule: Q04DX003 (ip), vehicle: saline",111 % of control
same,T/C,"dose: 0.66 mg/kg/injection, schedule: Q04DX003 (ip), vehicle: saline",116 % of control
same,T/C,"dose: 1.0 mg/kg/injection, schedule: Q04DX003 (ip), vehicle: saline",100 % of control
same,T/C,"dose: 1.5 mg/kg/injection, schedule: Q04DX003 (ip), vehicle: saline",110 % of control
same,T/C,"dose: 4.0 mg/kg/injection, schedule: Q04DX003 (ip), vehicle: saline",150 % of control
same,T/C,"dose: 6.0 mg/kg/injection, schedule: Q04DX003 (ip), vehicle: saline",150 % of control
same,T/C,"dose: 22.0 mg/kg/injection, schedule: Q04DX003 (ip), vehicle: saline",152 % of control
same,T/C,"dose: 33.0 mg/kg/injection, schedule: Q04DX003 (ip), vehicle: saline",180 % of control
same,T/C,"dose: 50.0 mg/kg/injection, schedule: Q04DX003 (ip), vehicle: saline",186 % of control
C[n+]1ccc(Nc2ccc(NC(=O)c3ccc(C(=O)Nc4ccc(Nc5cc[n+](C)c(N)n5)cc4)cc3)cc2)nc1N,T/C,"dose: 6.3 mg/kg/injection, schedule: Q01DX007 (ip), vehicle: Klucel (hydroxypropylcellulose) (HPC)",180 % of control
same,T/C,"dose: 6.3 mg/kg/injection, schedule: Q01DX009 (ip), vehicle: saline",155 % of control
same,T/C,"dose: 9.6 mg/kg/injection, schedule: Q01DX007 (ip), vehicle: Klucel (hydroxypropylcellulose) (HPC)",180 % of control
same,T/C,"dose: 9.6 mg/kg/injection, schedule: Q01DX009 (ip), vehicle: saline",161 % of control
same,T/C,"dose: 12.5 mg/kg/injection, schedule: Q01DX009 (ip), vehicle: Klucel (hydroxypropylcellulose) (HPC)",190 % of control
same,T/C,"dose: 14.0 mg/kg/injection, schedule: Q01DX007 (ip), vehicle: Klucel (hydroxypropylcellulose) (HPC)",175 % of control
same,T/C,"dose: 14.0 mg/kg/injection, schedule: Q01DX009 (ip), vehicle: saline",150 % of control
same,T/C,"dose: 25.0 mg/kg/injection, schedule: Q01DX009 (ip), vehicle: Klucel (hydroxypropylcellulose) (HPC)",172 % of control
same,T/C,"dose: 50.0 mg/kg/injection, schedule: Q01DX009 (ip), vehicle: Klucel (hydroxypropylcellulose) (HPC)",204 % of control
same,T/C,[13],259 % of control
same,T/C,[14],172 % of control
same,T/C,"dose: 200.0 mg/kg/injection, schedule: Q04DX003 (ip), vehicle: saline",163 % of control
COC1(c2ccco2)OC1(C)C (stereo unspecified),T/C,"dose: 5.0 mg/kg/injection, schedule: Q01DX009 (ip), vehicle: Klucel (hydroxypropylcellulose) (HPC)",86 % of control
same,T/C,[1],109 % of control
same,T/C,"dose: 10.0 mg/kg/injection, schedule: Q01DX009 (ip), vehicle: Klucel (hydroxypropylcellulose) (HPC)",86 % of control
same,T/C,[2],109 % of control
same,T/C,"dose: 20.0 mg/kg/injection, schedule: Q01DX009 (ip), vehicle: Klucel (hydroxypropylcellulose) (HPC)",90 % of control
same,T/C,[3],104 % of control
O=C(O)CNC(=O)CNC(=O)C(Br)Cc1ccccc1 (stereo unspecified),T/C,[12],95 % of control
same,T/C,"dose: 25.0 mg/kg/injection, schedule: Q04DX003 (ip), vehicle: Klucel (hydroxypropylcellulose) (HPC)",104 % of control
same,T/C,[10],87 % of control
same,T/C,"dose: 50.0 mg/kg/injection, schedule: Q04DX003 (ip), vehicle: Klucel (hydroxypropylcellulose) (HPC)",104 % of control
same,T/C,[5],100 % of control
same,T/C,[11],91 % of control and 100 % of control
S=C(S)NCCNC(=S)S,T/C,"dose: 40.0 mg/kg/injection, schedule: Q01DX009 (ip), vehicle: saline",120 % of control
same,T/C,"dose: 60.0 mg/kg/injection, schedule: Q01DX009 (ip), vehicle: saline",108 % of control
same,T/C,"dose: 85.0 mg/kg/injection, schedule: Q04DX003 (ip), vehicle: saline",109 % of control
same,T/C,"dose: 88.0 mg/kg/injection, schedule: Q01DX009 (ip), vehicle: saline",100 % of control
same,T/C,"dose: 88.0 mg/kg/injection, schedule: Q04DX003 (ip), vehicle: saline",109 % of control
same,T/C,[15],115 % of control
same,T/C,[14],109 % of control and 118 % of control
same,T/C,"dose: 132.0 mg/kg/injection, schedule: Q04DX003 (ip), vehicle: saline",104 % of control
same,T/C,"dose: 150.0 mg/kg/injection, schedule: Q01DX009 (ip), vehicle: saline",115 % of control
same,T/C,"dose: 300.0 mg/kg/injection, schedule: Q04DX003 (ip), vehicle: saline",109 % of control
same,T/C,"dose: 350.0 mg/kg/injection, schedule: Q01DX009 (ip), vehicle: saline",120 % of control
same,T/C,"dose: 400.0 mg/kg/injection, schedule: Q04DX003 (ip), vehicle: saline",100 % of control and 118 % of control
CCOC(=O)c1c(N)[nH]c(SSc2[nH]c(N)c(C(=O)OCC)c2C(=O)OCC)c1C(=O)OCC,T/C,[12],92 % of control
same,T/C,[10],108 % of control
same,T/C,[4],109 % of control
same,T/C,[6],109 % of control
same,T/C,[8],114 % of control
same,T/C,[9],109 % of control
CN(C)C(=O)c1cccc(N)c1,T/C,[15],100 % of control
same,T/C,"dose: 200.0 mg/kg/injection, schedule: Q01DX009 (ip), vehicle: saline",95 % of control
same,T/C,"dose: 400.0 mg/kg/injection, schedule: Q01DX009 (ip), vehicle: saline",100 % of control
O=[N+]([O-])c1ccccc1N=N/C(Cc1ccccc1)=N\Nc1ccccc1,T/C,[13],120 % of control
same,T/C,"dose: 200.0 mg/kg/injection, schedule: Q01DX009 (ip), vehicle: Klucel (hydroxypropylcellulose) (HPC)",115 % of control
